# According to PubChem BioAssay (NCI):
#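 Where inhibition never reached the appropriate level, the endpoint shown equals the highest concentration tested. Otherwise, values were interpolated linearly from a five-concentration, 48-hour dose response in 96-well plates. The concentration for 50% growth inhibition is given as GI50. Definition used: TGI = concentration required for complete inhibition of growth.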
# Columns and labels:
# Assay in all cases: inhibition of tumour cell growth, NCI panel, 48 h
# [1] = test system: KM12 colon
# [2] = test system: A549 NSCLC
# [3] = test system: UO-31 renal
# [4] = test system: SW-620 colon
# [5] = test system: NCI/ADR-RES ovarian
# [6] = test system: NCI-H23 lung
# [7] = test system: MDA-MB-231 breast
# [8] = test system: MDA-MB-435
# [9] = test system: SN12C renal
# [10] = test system: PC-3 prostate
# [11] = test system: MALME-3M melanoma
# [12] = test system: HS 578T breast
# [13] = test system: MOLT-4 leukemia
# [14] = test system: CCRF-CEM leukemia
# [15] = test system: A498 renal
# [16] = test system: COLO 205 colon
# [17] = test system: UACC-62 melanoma
# [18] = test system: SK-OV-3 ovarian
# [19] = test system: HCT-116 colon
# [20] = test system: M14 melanoma
# [21] = test system: HT29 colon
# [22] = test system: SF-268 CNS
# [23] = test system: SF-539 CNS
# [24] = test system: SR leukemia
# [25] = test system: SK-MEL-28 melanoma
# [26] = test system: 786-0 renal
# [27] = test system: EKVX NSCLC
# [28] = test system: UACC-257 melanoma
# [29] = test system: K-562 leukemia
# [30] = test system: SF-295 CNS
# [31] = test system: DU-145 prostate
# [32] = test system: ACHN renal
# [33] = test system: TK-10 renal
# [34] = test system: OVCAR-3 ovarian
# [35] = test system: CAKI-1 renal
# [36] = test system: NCI-H522 lung
# [37] = test system: IGROV1 ovarian
# [38] = test system: HOP-62 NSCLC
# [39] = test system: RPMI-8226 leukemia
# [40] = test system: OVCAR-5 ovarian
# [41] = test system: HCC-2998 colon
# [42] = test system: U251 CNS
# [43] = test system: SK-MEL-5 melanoma
# [44] = test system: OVCAR-8 ovarian
# [45] = test system: BT-549 breast
# [46] = test system: SK-MEL-2 melanoma
# [47] = test system: T-47D breast
# [48] = test system: HOP-92 NSCLC
# [49] = test system: NCI-H226 lung
# [50] = test system: SNB-75 CNS
# [51] = test system: NCI-H460 lung
# [52] = test system: SNB-19 CNS
# [53] = test system: HCT-15 colon
# [54] = test system: MCF7 breast
smiles,measurement,setting,value
C=C(CN1CCc2ccccc2C1)c1ccc(CCC(=O)Nc2ccccc2N)cc1,GI50,[1],21.9 µM
same,TGI,[1],71.8 µM
same,GI50,[2],41.3 µM
same,TGI,[2],> 100 µM
same,GI50,[3],12 µM
same,TGI,[3],28.7 µM
same,GI50,[4],28.3 µM
same,TGI,[4],65.8 µM
same,GI50,[5],18.9 µM
same,TGI,[5],83.3 µM
same,GI50,[6],28.6 µM
same,TGI,[6],85.2 µM
same,GI50,[7],18.6 µM
same,TGI,[7],44.1 µM
same,GI50,[8],22.5 µM
same,TGI,[8],49.9 µM
same,GI50,[9],17.3 µM
same,TGI,[9],51 µM
same,GI50,[10],25.4 µM
same,TGI,[10],> 100 µM
same,GI50,[11],8.7 µM
same,TGI,[11],36.8 µM
same,GI50,[12],44 µM
same,TGI,[12],> 100 µM
same,GI50,[13],4.65 µM
same,TGI,[13],26 µM
same,GI50,[14],4.66 µM
same,TGI,[14],> 100 µM
same,GI50,[15],26.1 µM
same,TGI,[15],68.7 µM
same,GI50,[16],23.6 µM
same,TGI,[16],48 µM
same,GI50,[17],26.9 µM
same,TGI,[17],> 100 µM
same,GI50,[18],60.8 µM
same,TGI,[18],> 100 µM
same,GI50,[19],16.2 µM
same,TGI,[19],32.4 µM
same,GI50,[20],17.6 µM
same,TGI,[20],34.3 µM
same,GI50,[21],31 µM
same,TGI,[21],> 100 µM
same,GI50,[22],14.6 µM
same,TGI,[22],45.3 µM
same,GI50,[23],19.4 µM
same,TGI,[23],37 µM
same,GI50,[24],18.7 µM
same,TGI,[24],74.5 µM
same,GI50,[25],42.6 µM
same,TGI,[25],> 100 µM
same,GI50,[26],18.3 µM
same,TGI,[26],> 100 µM
same,GI50,[27],37.1 µM
same,TGI,[27],> 100 µM
same,GI50,[28],22.6 µM
same,TGI,[28],46.4 µM
same,GI50,[29],23 µM
same,TGI,[29],56.9 µM
same,GI50,[30],24.2 µM
same,TGI,[30],86.7 µM
same,GI50,[31],18.7 µM
same,TGI,[31],48.7 µM
same,GI50,[32],34.1 µM
same,TGI,[32],> 100 µM
same,GI50,[33],43.1 µM
same,TGI,[33],> 100 µM
same,GI50,[34],19.3 µM
same,TGI,[34],63.5 µM
same,GI50,[35],20.9 µM
same,TGI,[35],77.1 µM
same,GI50,[36],16.2 µM
same,TGI,[36],38.2 µM
same,GI50,[37],16.3 µM
same,TGI,[37],41.9 µM
same,GI50,[38],65.7 µM
same,TGI,[38],> 100 µM
same,GI50,[39],14.8 µM
same,TGI,[39],> 100 µM
same,GI50,[40],54.1 µM
same,TGI,[40],> 100 µM
same,GI50,[41],17.1 µM
same,TGI,[41],33.4 µM
same,GI50,[42],21.3 µM
same,TGI,[42],50.3 µM
same,GI50,[43],18 µM
same,TGI,[43],33.2 µM
same,GI50,[44],26.2 µM
same,TGI,[44],59.5 µM
same,GI50,[45],16.4 µM
same,TGI,[45],55.1 µM
same,GI50,[46],23.9 µM
same,TGI,[46],54 µM
same,GI50,[47],34.3 µM
same,TGI,[47],> 100 µM
same,GI50,[48],87.4 µM
same,TGI,[48],> 100 µM
same,GI50,[49],27.1 µM
same,TGI,[49],71.2 µM
same,GI50,[50],25.3 µM
same,TGI,[50],64.4 µM
same,GI50,[51],16.8 µM
same,TGI,[51],38.6 µM
same,GI50,[52],64.3 µM
same,TGI,[52],> 100 µM
same,GI50,[53],35.4 µM
same,TGI,[53],97.9 µM
same,GI50,[54],21.1 µM
same,TGI,[54],54.7 µM
